Consider two molecules from patent publication US10596118B2, “Solid dispersions” (Shionogi Inc., priority 2015, dated 2020).

The conditions of data set [1]: Sun et al., 2012; cited from earlier work.
A short description of data set [2]: physchem. Particulars: organic solvent or mixture, thermodynamic from solid. The source says:
In developing methods of evaluating the solubility of the various compositions produced in these studies, a common solvent was selected that was capable of dissolving both ospemifene and each of the hydrophilic carriers being evaluated. […] Thus, an incremental solvent addition method was used to estimate the solubility in methanol and ethanol co-solvent mixture.

A short description of data set [3]: Micro dissolution in simulated GI fluids (FaSSIF, FeSSIF) and pH 6.8 phosphate buffer. Conditions: for solubility in FeSSIF relative to FaSSIF: FeSSIF versus FaSSIF. The text has this:
To investigate the in-vivo absorption process of ospemifene in the GI tract, a dissolution method using simulated GI fluids (FaSSIF and FeSSIF) was developed to simulate drug dissolution in-vivo. The abbreviation “FaSSIF” stands for fasted state simulated intestinal fluid, while the abbreviation “FeSSIF” stands for fed state simulated intestinal fluid. […] FaSSIF and FeSSIF media are commercially available from Biorelevant and were used according to the manufacturer's instructions.
Micro dissolution was conducted in a centrifuge vial containing 1.5 mL of dissolution medium (either FaSSIF or FeSSIF) at room temperature. […] The vials were centrifuged at 30 min, 1, 2 and 3 hour(s) at 14,000 rpm for one minute and 50 μL of supernatant was transferred to an HPLC vial and diluted with 50 μL acetonitrile and assayed by HPLC.
The detector was set at 235 nm. Two mobile phases were used, mobile phase A and mobile phase B. Mobile phase A was 800/200/40 (v/v/v) deionized water/acetonitrile/tetrahydrofuran and mobile phase B was 100% acetonitrile.
For drug content analysis, the same HPLC column and mobile phases were used but the flow rate of the mobile phases was 1 ml/min, the injection volume was 7 μL and the gradient program was as follows: […]

The conditions of data set [4]: oral administration of a 60 mg dose; cited from earlier work.
For data set [5] the following is noted: poor water solubility and high permeability.
Data set [6] can be described thus: Solubility by shake flask method with HPLC analysis. Particulars: thermodynamic from solid. The protocol:
Solubility measurements of the solid dispersions and physical mixtures were performed using a shake flask method. Individual test samples comprising about 5 mg ospemifene, 30 mg of each physical mixture, or 30 mg of each solid dispersion, were mixed with 20 mL of an aqueous media (either water alone, 0.1N HCl, or a buffered aqueous solution comprising 50 mM phosphate, pH 6.8). The sample was agitated manually for 3 hours. Following mixing, a 1.5 mL sample was withdrawn to a micro-centrifuge tube and centrifuged at 12,000 rpm for 10 min. About 1 mL of supernatant was then transferred to a HPLC vial for HPLC analysis.
The solubilities of ospemifene solid dispersions, the control physical mixtures, and ospemifene alone were determined by HPLC in water, 0.1 N HCl, or 50 mM pH 6.8 buffer using a shake flask method, as described above.

The nature of data set [7]: physchem. Particulars: water or buffered solutions, aqueous buffer.

Values after ≈ are worked out from the molar mass of the structure shown. Where only a bound is given, the exact number is not on record here.

`COc1ccc2c(c1)c(CC(=O)O)c(C)n2C(=O)c1ccc(Cl)cc1` [indomethacin]: in data set [1], the “maximum solubility enhancement observed with HPMCAS or PVP” value is listed as 9 fold.
What is called solubility is the dissolved amount per volume that the medium holds. With `OCCOc1ccc(/C(=C(/CCCl)c2ccccc2)c2ccccc2)cc1` [Ospemifene (OSP), ospemifene], the solubility was approximately 57000 µg/mL (≈ 150000 µM) in the data set “physchem [2]” (solubility in ethanol, ethanol); approximately 67000 µg/mL (≈ 177000 µM) in “physchem [2]” (solubility in methanol, methanol); 45 µg/mL (≈ 119 µM) in data set [3] (fessif, thermodynamic from solid); less than 10 µg/mL in data set [3] (pH 6.8, aqueous buffer); less than 0.3 µg/mL in “physchem [7]”. In data set [3] (FeSSIF and FaSSIF), the “time the amount of drug in solution remains relatively stable” value was 2 to 3 h. For the same molecule, the “solubility in FeSSIF relative to FaSSIF” value is “about 4 fold” in data set [3] (listed as micronized ospemifene) and 2-3 fold in data set [3] (listed as ospemifene alone). The molecule further showed a solubility at 2 h in data set [3] (fassif, thermodynamic from solid) of 10 µg/mL (≈ 26.4 µM). Further, in data set [4], the “share of total dose eliminated via the fecal route” value is 75%. Besides, the BCS class entry in data set [5] is recorded as “BCS class II”. For the same molecule, the solubility at 3 h in data set [6] (pH 6.8, aqueous buffer) was less than 0.03 µg/mL; in data set [6] (simulated gastric fluid) it was less than 0.03 µg/mL; in data set [6] (water), 0.04 µg/mL (≈ 0.106 µM).
